Legend:
Format in all cases: cell-based, human
[1] = system: hematopoietic stem cells (HSCs); assay: Multi-lineage toxicity assay (MLTA), HSCs: concentration-response and QSP model fit; conditions: Homo sapiens, Hematopoietic stem cell, 144 h
In short: (§1)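 Freeze-thawed primary human bone marrow CD34+ cells were grown in SFEM II with a multi-lineage cytokine cocktail, drug added day 0, six days at 37°C. Lineage counts came from 17-parameter flow with TruCount beads, vehicle-normalized per donor, then fitted by an Emax-based QSP model.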

[2] = system: granulocyte progenitor (Gran-lin prog); assay: MLTA, GranP: concentration-response and QSP model fit; conditions: Homo sapiens, 144 h
In short: (§2)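 Parameters come from fitting an Emax-based QSP model, with L1 regularization and Emax ranging 0–2, to vehicle-normalized, bead-corrected flow cytometry counts. Counts came from human bone marrow CD34+ cells treated from day 0 through a 6-day multi-lineage cytokine culture in SFEM II, using 2–7 donors per drug.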

[3] = system: monocyte progenitors (monocyte prog); assay: MLTA, MonoP: concentration-response and QSP model fit; conditions: Homo sapiens, Monocyte, 144 h
In short: as §2

monocytes (monocyte-lin) = assay: MLTA, Mono: concentration-response and QSP model fit; conditions: Homo sapiens, Monocyte, 144 h
In short: as §2

[4] = system: neutrophils (neutrophil-lin); assay: MLTA, Neut: concentration-response and QSP model fit; conditions: Homo sapiens, Neutrophil, 144 h
In short: as §1

[5] = system: early erythroid cells (Eryth I); assay: MLTA, ErythI: concentration-response and QSP model fit; conditions: Homo sapiens, 144 h
In short: as §2

B cells (B-lin) = assay: MLTA, B-lin: concentration-response and QSP model fit; conditions: Homo sapiens, B-cell, 144 h
In short: as §1

O=C1CCC(N2C(=O)c3ccccc3C2=O)C(=O)N1 (centres unmarked) [thalidomide]
activity at 0.0002 µM ([1]; dose 0.2 nM, 6 days, normalized to vehicle control, read-out: HSCs normalized cell count): 67.6% | activity at 0.001 µM ([1]; dose 1 nM, 6 days, normalized to vehicle control, read-out: HSCs normalized cell count): 92.6% | activity at 0.005 µM ([1]; dose 5 nM, 6 days, normalized to vehicle control, read-out: HSCs normalized cell count): 109% | activity at 0.025 µM ([1]; dose 25 nM, 6 days, normalized to vehicle control, read-out: HSCs normalized cell count): 96.3% | activity at 0.1 µM ([1]; dose 100 nM, 6 days, normalized to vehicle control, read-out: HSCs normalized cell count): 84.9% | activity at 0.5 µM ([1]; dose 500 nM, 6 days, normalized to vehicle control, read-out: HSCs normalized cell count): 99.8% | activity at 2.5 µM ([1]; dose 2500 nM, 6 days, normalized to vehicle control, read-out: HSCs normalized cell count): 113% | Emax ([1]; parameter from QSP model fitting, read-out: Emax_drug_HSC): 0.000374% | activity at 0.0002 µM ([2]; dose 0.2 nM, 6 days, normalized to vehicle control, read-out: GranPs normalized cell count): 80.9% | activity at 0.001 µM ([2]; dose 1 nM, 6 days, normalized to vehicle control, read-out: GranPs normalized cell count): 97.2% | activity at 0.005 µM ([2]; dose 5 nM, 6 days, normalized to vehicle control, read-out: GranPs normalized cell count): 114% | activity at 0.025 µM ([2]; dose 25 nM, 6 days, normalized to vehicle control, read-out: GranPs normalized cell count): 130% | activity at 0.1 µM ([2]; dose 100 nM, 6 days, normalized to vehicle control, read-out: GranPs normalized cell count): 99% | activity at 0.5 µM ([2]; dose 500 nM, 6 days, normalized to vehicle control, read-out: GranPs normalized cell count): 94.5% | activity at 2.5 µM ([2]; dose 2500 nM, 6 days, normalized to vehicle control, read-out: GranPs normalized cell count): 109% | Emax ([2]; parameter from QSP model fitting, read-out: Emax_drug_GranP): 0.0121% | activity at 0.0002 µM ([3]; dose 0.2 nM, 6 days, normalized to vehicle control, read-out: MonoPs normalized cell count): 90.1% | activity at 0.001 µM ([3]; dose 1 nM, 6 days, normalized to vehicle control, read-out: MonoPs normalized cell count): 93.5% | activity at 0.005 µM ([3]; dose 5 nM, 6 days, normalized to vehicle control, read-out: MonoPs normalized cell count): 98.4% | activity at 0.025 µM ([3]; dose 25 nM, 6 days, normalized to vehicle control, read-out: MonoPs normalized cell count): 120% | activity at 0.1 µM ([3]; dose 100 nM, 6 days, normalized to vehicle control, read-out: MonoPs normalized cell count): 92% | activity at 0.5 µM ([3]; dose 500 nM, 6 days, normalized to vehicle control, read-out: MonoPs normalized cell count): 82.7% | activity at 2.5 µM ([3]; dose 2500 nM, 6 days, normalized to vehicle control, read-out: MonoPs normalized cell count): 104% | Emax ([3]; parameter from QSP model fitting, read-out: Emax_drug_MonoP): 0.00494% | activity at 0.0002 µM (monocytes (monocyte-lin); dose 0.2 nM, 6 days, normalized to vehicle control, read-out: Mon normalized cell count): 83.3% | activity at 0.001 µM (monocytes (monocyte-lin); dose 1 nM, 6 days, normalized to vehicle control, read-out: Mon normalized cell count): 94% | activity at 0.005 µM (monocytes (monocyte-lin); dose 5 nM, 6 days, normalized to vehicle control, read-out: Mon normalized cell count): 89.4% | activity at 0.025 µM (monocytes (monocyte-lin); dose 25 nM, 6 days, normalized to vehicle control, read-out: Mon normalized cell count): 106% | activity at 0.1 µM (monocytes (monocyte-lin); dose 100 nM, 6 days, normalized to vehicle control, read-out: Mon normalized cell count): 94.4% | activity at 0.5 µM (monocytes (monocyte-lin); dose 500 nM, 6 days, normalized to vehicle control, read-out: Mon normalized cell count): 99.9% | activity at 2.5 µM (monocytes (monocyte-lin); dose 2500 nM, 6 days, normalized to vehicle control, read-out: Mon normalized cell count): 97.3% | Emax (monocytes (monocyte-lin); parameter from QSP model fitting, read-out: Emax_drug_Mono): 0.00608% | activity at 0.0002 µM ([4]; dose 0.2 nM, 6 days, normalized to vehicle control, read-out: Neut normalized cell count): 99.5% | activity at 0.001 µM ([4]; dose 1 nM, 6 days, normalized to vehicle control, read-out: Neut normalized cell count): 79.1% | activity at 0.005 µM ([4]; dose 5 nM, 6 days, normalized to vehicle control, read-out: Neut normalized cell count): 88.2% | activity at 0.025 µM ([4]; dose 25 nM, 6 days, normalized to vehicle control, read-out: Neut normalized cell count): 94.5% | activity at 0.1 µM ([4]; dose 100 nM, 6 days, normalized to vehicle control, read-out: Neut normalized cell count): 62.4% | activity at 0.5 µM ([4]; dose 500 nM, 6 days, normalized to vehicle control, read-out: Neut normalized cell count): 69% | activity at 2.5 µM ([4]; dose 2500 nM, 6 days, normalized to vehicle control, read-out: Neut normalized cell count): 96.9% | Emax ([4]; parameter from QSP model fitting, read-out: Emax_drug_Neut): 1.13% | activity at 0.0002 µM ([5]; dose 0.2 nM, 6 days, normalized to vehicle control, read-out: ErythI normalized cell count): 101% | activity at 0.001 µM ([5]; dose 1 nM, 6 days, normalized to vehicle control, read-out: ErythI normalized cell count): 120% | activity at 0.005 µM ([5]; dose 5 nM, 6 days, normalized to vehicle control, read-out: ErythI normalized cell count): 124% | activity at 0.025 µM ([5]; dose 25 nM, 6 days, normalized to vehicle control, read-out: ErythI normalized cell count): 122% | activity at 0.1 µM ([5]; dose 100 nM, 6 days, normalized to vehicle control, read-out: ErythI normalized cell count): 137% | activity at 0.5 µM ([5]; dose 500 nM, 6 days, normalized to vehicle control, read-out: ErythI normalized cell count): 114% | activity at 2.5 µM ([5]; dose 2500 nM, 6 days, normalized to vehicle control, read-out: ErythI normalized cell count): 136% | Emax ([5]; parameter from QSP model fitting, read-out: Emax_drug_ErythroidI): 0.00343% | activity at 0.0002 µM (B cells (B-lin); dose 0.2 nM, 6 days, normalized to vehicle control, read-out: B-lin normalized cell count): 90.8% | activity at 0.001 µM (B cells (B-lin); dose 1 nM, 6 days, normalized to vehicle control, read-out: B-lin normalized cell count): 99.6% | activity at 0.005 µM (B cells (B-lin); dose 5 nM, 6 days, normalized to vehicle control, read-out: B-lin normalized cell count): 108% | activity at 0.025 µM (B cells (B-lin); dose 25 nM, 6 days, normalized to vehicle control, read-out: B-lin normalized cell count): 116% | activity at 0.1 µM (B cells (B-lin); dose 100 nM, 6 days, normalized to vehicle control, read-out: B-lin normalized cell count): 93% | activity at 0.5 µM (B cells (B-lin); dose 500 nM, 6 days, normalized to vehicle control, read-out: B-lin normalized cell count): 91.5% | activity at 2.5 µM (B cells (B-lin); dose 2500 nM, 6 days, normalized to vehicle control, read-out: B-lin normalized cell count): 104% | Emax (B cells (B-lin); parameter from QSP model fitting, read-out: Emax_drug_B): 0.24%

Reference: paper PMC7402526, “An in vitro quantitative systems pharmacology approach for deconvolving mechanisms of drug-induced, multilineage cytopenias” (PLoS Computational Biology, 2020)
